Where two headings read alike, the source gives them in different places.
Tests used:
HDAC2 [1] = target: T1, HDAC2 (Homo sapiens, UniProt Q92769); assay: HDAC2 recombinant enzymatic assay; type: biochemical; parameters: purchased BPS Bioscience; settings: 5 h pre-incubation, 5 nM enzyme; read-out: HDAC recombinant enzymatic IC50 HDAC2
Description: (§1) The following describes an assay protocol for measuring the deacetylation of a peptide substrate by the enzymes HDAC2 or HDAC1.
(§2) All recombinant human HDACs were purchased from BPS Bioscience. The substrate, FAM-TSRHK(AC)KL-CONH, was synthesized at NanoSyn. Final assay reactions contained 100 mM HEPES (pH 7.5), 50 mM KCl, 0.1% BSA, 0.01% Triton X-100, 1% DMSO, 1 uM substrate and 5 nM HDAC enzyme. Enzyme and compounds were pre-incubated at 25° C. for 5 hours and reactions were initiated by addition of substrate. 10 uL reactions were incubated for 17 hours at 25° C. and terminated by the addition of 40 uL of buffer containing 100 mM HEPES (pH 7.5), 0.1% BSA, 0.01% Triton X-100 and 0.05% SDS. Substrate and product peptides present in each sample were separated electrophoretically using the LabChip 3000 capillary electrophoresis instrument. Change in the relative fluorescence intensity of the substrate and product peaks reflects enzyme activity. Reaction progress was determined as the product to sum ratio (PSR):P/(S+P), where P is the peak height of the product peptide and S is the peak height of the substrate peptide. Reactions were performed in duplicate at 12 concentrations, (3× serial dilutions starting at 30 uM). IC50 values were calculated using a 4 Parameter Logistic Model.

HDAC2 [2] = target: T1, HDAC2; assay: HDAC2 enzymatic inhibition assay in SY5Y cell lysate with HDAC-Glo2 substrate; type: cell-based; parameters: host or cells: SH-SY5Y; settings: SH-SY5Y cells, 5 h compound incubation, HDAC-Glo 2 reagent
Description: HDAC2 Enzymatic Inhibition Assay in SY5Y Cell Lysate with HDAC-Glo2 Substrate
SH-SY5Y cells (Sigma) were cultured in Eagle's Modified Essential Medium supplemented with 10% fetal bovine serum and pen/strep. Twenty-four hours prior to compound dosing 20 uL of cells were plated in white 384 well plates at a density of 1,500 cells/well. Compounds were serially diluted in neat DMSO and then diluted 1:100 v/v into media without FBS and mixed. Media was removed from the plated cells and the diluted compounds in serum free media (1% v/v final DMSO) were added and incubated at 37.0 for five hours. Ten uL of HDAC-Glo 2 reagent with 0.1% Triton X-100 was then added, the plate was mixed and allowed to develop at room temperature for 100 minutes. Plates were then read with a Spectramax LMax luminometer employing a 0.4 s integration time. Dose response curves were constructed with normalized data where CI-994 at 100 uM was defined as 100% inhibition and DMSO alone as 0% inhibition.

[3] = Brain and plasma exposure following IV and PO administration to mice; type: in vivo; settings: for clearance / half-life: plasma; for Mouse IV-PO (1/10 mpk): F: IV 1 mpk / PO 10 mpk
Description: Compounds were dosed in mice at either 10 mg/kg or 30 mg/kg PO, and were dosed at 1 mg/kg IV. Three animals for collection at each time point for plasma via bleeding at 0.25, 0.5, 1, 4, 12 and 24 h. Terminal bleeding for plasma and sampling for brain at 0.25, 0.5, 1, 4, 12 and 24 h (also three animals per brain exposure time point group). Total of six time points for plasma and six time points for brain.
Plasma: The animal was restrained manually at the designated time points, approximately 150 μL blood/time point was collected into K2EDTA tube via retro orbital puncture or cardiac puncture under anesthesia with Isoflurane. The blood sample was centrifuged (2000 g, 4° C., 5 min) to generate plasma within 30 min after bleeding.
Brain: At the designated time points, a mid-line incision was made in the animals scalp and the skin was retracted. Using small bone cutters and rongeurs, removed the skull overlying the brain. Removed the brain using a spatula and rinse with cold saline. Placed the brain in screw-top tubes, and then stored the tubes under −70° C. until analysis.

HDAC1 = target: T2, HDAC1 (Homo sapiens, UniProt Q13547); assay: HDAC1 recombinant enzymatic assay; type: biochemical; settings: 5 h pre-incubation, 5 nM enzyme; read-out: HDAC recombinant enzymatic IC50 HDAC1
T2 construct: purchased BPS Bioscience
Description: as §1, §2

T2 sequence (Q13547 whole entry): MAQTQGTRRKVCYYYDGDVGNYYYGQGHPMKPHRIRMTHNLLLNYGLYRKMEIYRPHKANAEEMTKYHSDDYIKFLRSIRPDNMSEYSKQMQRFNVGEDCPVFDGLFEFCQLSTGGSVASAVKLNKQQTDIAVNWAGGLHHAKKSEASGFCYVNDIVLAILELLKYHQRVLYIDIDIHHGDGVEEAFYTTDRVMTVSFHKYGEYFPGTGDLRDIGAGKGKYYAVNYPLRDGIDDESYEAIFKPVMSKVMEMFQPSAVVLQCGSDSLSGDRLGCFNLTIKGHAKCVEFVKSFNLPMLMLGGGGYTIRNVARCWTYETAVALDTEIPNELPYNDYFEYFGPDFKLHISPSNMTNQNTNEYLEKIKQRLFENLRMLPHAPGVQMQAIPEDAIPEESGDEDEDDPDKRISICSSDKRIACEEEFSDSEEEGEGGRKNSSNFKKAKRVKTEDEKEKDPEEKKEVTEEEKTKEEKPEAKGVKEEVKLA
T1 sequence (Q92769 whole entry): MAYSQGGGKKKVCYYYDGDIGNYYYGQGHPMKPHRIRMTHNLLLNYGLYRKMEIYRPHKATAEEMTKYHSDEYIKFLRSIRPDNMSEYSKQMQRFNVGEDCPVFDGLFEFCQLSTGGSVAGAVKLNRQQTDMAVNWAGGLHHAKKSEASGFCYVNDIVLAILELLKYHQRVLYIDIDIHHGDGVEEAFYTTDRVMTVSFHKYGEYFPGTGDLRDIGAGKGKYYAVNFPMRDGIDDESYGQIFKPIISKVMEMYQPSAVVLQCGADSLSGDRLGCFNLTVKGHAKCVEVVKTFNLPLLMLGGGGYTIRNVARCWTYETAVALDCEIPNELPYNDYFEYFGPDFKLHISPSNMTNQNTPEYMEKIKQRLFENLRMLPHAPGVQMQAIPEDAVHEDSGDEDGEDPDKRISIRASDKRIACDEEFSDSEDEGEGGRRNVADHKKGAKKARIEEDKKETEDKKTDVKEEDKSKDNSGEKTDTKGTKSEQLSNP

Nc1ccc(-c2ccc(F)cc2)nc1NC(=O)N1Cc2cncnc2C1 [Comparator D]
IC50 (HDAC2 [1]): 627 nM
IC50 (HDAC2 [2]): 331 nM
Projected Brain Cmax @ 10 mpk (*scaled for comparison) ([3]; mouse, brain, scaled to 10 mpk for comparison): 158* ng/g
IC50 (HDAC1): 239 nM

COCc1cc2c(cn1)CN(C(=O)Nc1nc(-c3ccc(F)cc3F)ccc1N)C2 [Compound 1]
IC50 (HDAC2 [1]): 510 nM
IC50 (HDAC2 [2]): 777 nM
Projected Brain Cmax @ 10 mpk ([3]; mouse, 10 mpk, brain): 2460 ng/g
Projected free brain @ 10 mpk ([3]; mouse, 10 mpk, free brain): 1.04 µM
clearance ([3]; 1 mg/kg, mouse, IV, read-out: IV PK Cl (converted)): 11.4 mL/min/kg
half-life ([3]; 1 mg/kg, mouse, IV, read-out: IV PK T ½ (converted)): 128 min
half-life ([3]; 10 mpk, mouse, PO, read-out: PK T ½ PO (converted)): 118 min
IC50 (HDAC1): 326 nM

Nc1ccc(-c2ccc(F)cc2)cc1NC(=O)N1Cc2nccnc2C1 [Comparator A]
IC50 (HDAC2 [1]): 142 nM
IC50 (HDAC2 [2]): 369 nM
IC50 (HDAC1): 27 nM

Nc1ccc(-c2ccc(F)cc2)nc1NC(=O)N1Cc2nccnc2C1 [Comparator B]
IC50 (HDAC2 [1]): 475 nM
IC50 (HDAC2 [2]): 485 nM
IC50 (HDAC1): 119 nM

Cc1ncc2c(n1)CN(C(=O)Nc1nc(-c3cccs3)ccc1N)C2 [Compound 2]
IC50 (HDAC2 [2]): 577 nM
Mouse IV-PO (1/10 mpk): F [3]: 100%
Mouse PO (10 mpk): Brain Cmax ([3]; brain): 583 ng/g
Mouse PO (10 mpk): Free brain Cmax ([3]; free brain): 173 ng/g
higher brain exposure over the unsubstituted pyrimidine analog ([3]; mouse, relative to Comparator E): > 5 fold
clearance ([3]; 1 mg/kg, mouse, IV 1 mpk, read-out: Mouse IV (1 mpk): Cl (converted)): 69.7 mL/min/kg
half-life ([3]; 1 mg/kg, mouse, IV 1 mpk, read-out: Mouse IV (1 mpk): T1/2 (converted)): 50.3 min
half-life ([3]; 10 mpk, mouse, PO, read-out: Mouse PO (1/10 mpk): T1/2 (converted)): 63 min
IC50 (HDAC1): 133 nM

Nc1ccc(-c2cccs2)nc1NC(=O)N1Cc2nccnc2C1 [Comparator C]
IC50 (HDAC2 [1]): 301 nM
IC50 (HDAC2 [2]): 279 nM
IC50 (HDAC1): 95 nM

Nc1ccc(-c2cccs2)nc1NC(=O)N1Cc2cncnc2C1 [Comparator E]
IC50 (HDAC2 [1]): 511 nM
IC50 (HDAC2 [2]): 278 nM
Mouse IV-PO (1/10 mpk): F [3]: 49%
Mouse PO (10 mpk): Brain Cmax ([3]; brain): 100 ng/g
Mouse PO (10 mpk): Free brain Cmax ([3]; free brain): 35 ng/g
IC50 (HDAC1): 142 nM
